Test results taken from patent publication US5378846A, “1,2,3,4-tetrahydropyrrolo-[1,2-a]-pyrazine derivatives” (Russian-American Institute For New Drug Development, priority 1993, dated 1995).
Entries after “also recorded” stand apart in the source; their conditions may differ. Like-named read-outs stand apart in the source and are kept apart here.

Assays:
[1] = system: convulsive effect of pentylenetetrazole in mice; experiment: Convulsive effect of pentylenetetrazole; type: in vivo, outbred male mice
Protocol: (§1) Compounds according to the present invention were checked for their influence on gross behaviour. The experiments described herein (Examples 11, 12, 13, 14, and 15) were carried out using outbred male mice weighing approximately 18-24 g. Each substance was administered intraperitoneally 45 min. before the experiment. Locomotor activity was estimated individually for each animal for 3 min. using an actometer `Era-1` (Russia).
The influence of Compound 1 on the latency of convulsions and on the duration of animals' lives after pentylenetetrazole (130 mg/kg subcutaneously) was studied in outbred mice.

[2] = system: memory formation in rats; experiment: Passive avoidance test, step-through (memory formation, retention); type: in vivo, outbred male albino rats
Protocol: The influence of Compound 1 on memory formation was studied in a passive avoidance test, step-through paradigm (equipment of Laffaette Co., USA). The experiments were carried out on outbred male albino rats ([…]). Compound 1 and other drugs were administered intraperitoneally 45 min. before the passive avoidance training. The retention was tested 24 hours later learning (painful electroshock in the dark compartment) by the measurement of the time spent in the dark compartment for 3 min.

[3] = system: BALB/c mice; experiment: Open field test, BALB/c mice; type: in vivo, male BALB/c mice; conditions: for Central activity / Crosses of Squires / Emotionality (N. of defec.) / Total locomotor activity / Vert. stands: BALB/c, i.p.
Protocol: The effects of Compound 1 on different emotional stress reactions (ESR) in male mice of C57 B1/6 and BALB/c strains were studied. ESR indices were evaluated as changes in mice ambulations, defecations and motor activity in an "open field" test (Seredenin S. B., Vedernikov, A. A., Bull. Exp. Biol. Med., 100, No. 7, 38-40 (1979), which is incorporated herein by reference). Compound 1 was injected in different doses intraperitoneally 45 min. before test.

[4] = Acute toxicity in mice; conditions: mouse, in vivo, ip, mice, i.p.
Protocol: as §1
(§2) The compounds of the present invention were checked for acute toxicity in outbred male mice (18-22 g.). They were administered intraperitoneally and the lethality was estimated 24 hours later (Table 6). In the dose range of 500-1000 mg/kg i.p. Compound 1 caused death in 50% of the animals. Compound 1 is almost 5 times less toxic than other compounds.

[5] = system: outbred male mice; experiment: Acute toxicity in mice; conditions: mouse, in vivo, ip
Protocol: as §1, §2

[6] = system: aggressive behavior in mice; experiment: Antiaggressive activity (threshold of aggressive behavior, electrified floor); type: in vivo, outbred male mice
Protocol: as §1
The effect of Compound 1 on the threshold of the aggressive behavior was determined in the experiment on outbred mice (R. Tedesci et al., J. Pharmacol. Exp. Ther., 125, 28-34, (1959), which is incorporated herein by reference). The paired mice were placed on the electrified floor. The strength of the current, which provoked the fighting, was recorded.

[7] = system: locomotor activity in mice; experiment: Locomotor activity in mice (actometer); type: in vivo, outbred male mice; conditions: for The number of movements for 3 min., horizontal activity / The number of movements for 3 min., vertical activity: i.p.
Protocol: as §1

[8] = system: motor behavior in mice; experiment: Rotating rod test (coordination of movements and myorelaxation); conditions: for Disturbances according to rotating rod test, effect in %: mice
Protocol: (§3) The influence of Compound 1 on the motor behavior was studied according to a "rotating rod" test and a "horizontal wire" test in outbred male mice (18-22 g). A rotating rod (2 cm diameter and 5 rpm speed) was used. Acquisition was defined as the ability to remain on the rotating rod for 2 min. Each animal had two trials. According to the "horizontal wire" test a mouse was hung on the wire (0.3 cm. diameter, wire was fixed horizontally 40 cm above the floor) by the forepaws. The ability to pull the hind legs up to the wire for 2 min. was a criterion of test performance.

[9] = system: duration of immobility in mice; experiment: Behavioural despair test (forced swimming); type: in vivo, outbred male mice; conditions: for The duration of immobility: i.p.
Protocol: as §1
The influence of compounds on behavioral despair was studied according to the model described by Porsolt et al., Arch. int. pharmacodyn.et ther., 228, 327-[…] (1977), which is incorporated herein by reference. Mice, when forced to swim in a cylinder of water without the possibility of escape, rapidly adopt a characteristic immobile posture. […] The only movements they make are those necessary to keep their heads above water.

[10] = system: C57 B1/6 mice; experiment: Open field test, C57 B1/6 mice; type: in vivo, male C57 B1/6 mice; conditions: for Central activity / Crosses of Squires / Emotionality (N. of defec.) / Total locomotor activity / Vert. stands: C57 B1/6, i.p.
Protocol: ESR indices were evaluated as changes in mice ambulations, defecations and motor activity in an "open field" test ([…]., Bull. Exp. Biol. […] Compound 1 was injected in different doses intraperitoneally 45 min. before test.

[11] = system: motor behavior in mice; experiment: Horizontal wire test (coordination of movements and myorelaxation); conditions: mice
Protocol: as §3

[12] = 10 mg/kg + pentylenetetrazole 130 mg/kg s.c.
[13] = rat, 5.0 mg/kg i.p., retention 24 hours later, 3 min

O=C(O)CCC(=O)O.c1cc2n(c1)CCNC2 [Compound 1, 1,2,3,4-tetrahydropyrrolo-[1,2-a]-pyrazine hydrosuccinate]
Duration of animal survival [1, 12]: 7.3 ± 1.0 min
Latency of clon. [1, 12]: 3.35 ± 0.7 min
Latency of ton. [1, 12]: 7.06 ± 1.0 min
Effect on latency of convulsions and animal survival after pentylenetetrazole, in words ([1]; pentylenetetrazole 130 mg/kg subcutaneously): increase the duration of animals' survival after pentylenetetrazole injection; also recorded: causes prolongation of the latency of convulsions and of animal survival after pentylenetetrazole
Influence on learning and memory formation, in words ([2]; passive avoidance): able to facilitate memory trace formation; also recorded: able to facilitate the learning ability: the time spent in the dark compartment was significantly decreased
The time spent in dark compartment [2, 13]: 15.9 ± 3.4 s
The time spent in light compartment [2, 13]: 164.1 ± 9.4 s
Open field behavior of BALB/c mice, in words ([3]; 2.5 and 5.0 mg/kg i.p.): produces activating (anxiolytic) effect in initially low active BALB/c mice; also recorded: caused ambulation increase elevating the central activity, and defecation decrease in BALB/c mice
Central activity ([3]; 0.1 mg/kg): 0.0
Crosses of Squires ([3]; 0.1 mg/kg): 21.2 ± 5.8
Emotionality (N. of defec.) ([3]; 0.1 mg/kg): 0.5 ± 0.17
Total locomotor activity ([3]; 0.1 mg/kg): 21.2 ± 5.8
Vert. stands ([3]; 0.1 mg/kg): 0.0
Central activity ([3]; 1.0 mg/kg): 0.4 ± 0.3
Crosses of Squires ([3]; 1.0 mg/kg): 25.6 ± 4.6
Emotionality (N. of defec.) ([3]; 1.0 mg/kg): 1.2 ± 0.13
Total locomotor activity ([3]; 1.0 mg/kg): 26.1 ± 4.6
Vert. stands ([3]; 1.0 mg/kg): 0.1 ± 0.1
Central activity ([3]; 5.0 mg/kg): 2.4 ± 0.9
Crosses of Squires ([3]; 5.0 mg/kg): 29.8 ± 5.2
Emotionality (N. of defec.) ([3]; 5.0 mg/kg): 0.45 ± 0.11
Total locomotor activity ([3]; 5.0 mg/kg): 33.0 ± 6.1
Vert. stands ([3]; 5.0 mg/kg): 0.9 ± 0.5
LD50 at 24 h ([4]; 24 hours, read-out: Dose range causing death in 50% of the animals): 500 to 1000 mg/kg
LD50 at 24 h ([4]; lethality 24 hours later, Table 6 (range in brackets beside), read-out: LD50): 1540 mg/kg
Times less toxic than other compounds [5]: ~5 times
Effect on threshold of aggressive response, in words [6]: increase the threshold of aggressive response; also recorded: able to enhance the threshold of aggressive response
Aggression threshold ([6]; 0.5 mg/kg i.p.): 67.2 ± 1.7 V
Aggression threshold ([6]; 5.0 mg/kg i.p.): 90.8 ± 4.9 V
Influence on spontaneous motor activity, in words ([7]; 0.1-0.3 mg/kg i.p.): neither stimulated nor depressed the spontaneous motor activity
The number of movements for 3 min., horizontal activity ([7]; 0.1 mg/kg): 650.8 ± 12.5
The number of movements for 3 min., vertical activity ([7]; 0.1 mg/kg): 24.7 ± 2.5
The number of movements for 3 min., horizontal activity ([7]; 0.3 mg/kg): 657.7 ± 15.5
The number of movements for 3 min., vertical activity ([7]; 0.3 mg/kg): 25.2 ± 4.1
Disturbances according to rotating rod test, effect in % ([8]; dose 5.0): 0%
Disturbances according to rotating rod test, effect in % ([8]; dose 10.0): 0%
Disturbances according to rotating rod test, effect in % ([8]; dose 20.0): 0%
Disturbances according to rotating rod test, effect in % ([8]; dose 40.0): 0%
Disturbances according to rotating rod test, effect in % ([8]; dose 80.0): 0%
Disturbances according to rotating rod test, effect in % ([8]; dose 250.0): 0%
Motor behavior disturbance and myorelaxation, in words ([8]; rotating rod and horizontal wire tests, Compound 1 5-250 mg/kg): does not manifest amnestic and myorelaxant effects; also recorded: fails to evoke disturbances in the coordination of movements and myorelaxation
Influence on duration of immobility, in words ([9]; forced swimming): did not show any activity; also recorded: does not change the duration of immobility
The duration of immobility ([9]; 5.0 mg/kg): 117.3 ± 6.9 s
The duration of immobility ([9]; 10.0 mg/kg): 110.8 ± 5.1 s
Open field behavior of C57 B1/6 mice, in words ([10]; 5 mg/kg i.p.): caused the reduction of total ambulations inhibiting central and vertical activity. The number of defecations was not changed
Central activity ([10]; 0.1 mg/kg): 24.2 ± 5.2
Crosses of Squires ([10]; 0.1 mg/kg): 74.6 ± 7.6
Emotionality (N. of defec.) ([10]; 0.1 mg/kg): 1.0 ± 0.53
Total locomotor activity ([10]; 0.1 mg/kg): 114.6 ± 12.1
Vert. stands ([10]; 0.1 mg/kg): 15.8 ± 2.5
Central activity ([10]; 1.0 mg/kg): 29.9 ± 5.2
Crosses of Squires ([10]; 1.0 mg/kg): 65.6 ± 5.5
Emotionality (N. of defec.) ([10]; 1.0 mg/kg): 0.8 ± 0.39
Total locomotor activity ([10]; 1.0 mg/kg): 110.6 ± 10.9
Vert. stands ([10]; 1.0 mg/kg): 15.1 ± 2.0
Central activity ([10]; 5.0 mg/kg): 11.1 ± 1.6
Crosses of Squires ([10]; 5.0 mg/kg): 51.7 ± 5.3
Emotionality (N. of defec.) ([10]; 5.0 mg/kg): 0.22 ± 0.22
Total locomotor activity ([10]; 5.0 mg/kg): 71.7 ± 6.9
Vert. stands ([10]; 5.0 mg/kg): 7.8 ± 1.5
Sedation in C57B1/6 mice, in words ([10]; anxiolytic dose range, open field test): does not cause sedation in C57B1/6 mice; also recorded: anxiolytic effect in BALB/c mice does not coincide with sedative effect in C57B 1/6 mice
Disturbances according to horizontal wire test, effect in % ([11]; dose 5.0): 0%
Disturbances according to horizontal wire test, effect in % ([11]; dose 10.0): 0%
Disturbances according to horizontal wire test, effect in % ([11]; dose 20.0): 0%
Disturbances according to horizontal wire test, effect in % ([11]; dose 40.0): 0%
Disturbances according to horizontal wire test, effect in % ([11]; dose 80.0): 0%
Disturbances according to horizontal wire test, effect in % ([11]; dose 250.0): 0%
